Measurements taken from ChEMBL document CHEMBL1201862, “PubChem BioAssay data set” (2004).
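Values below derive from 48-hour exposures of cells grown in 96-well plates, with endpoints linearly interpolated between the two concentrations bracketing the appropriate inhibition level. Here, GI50 denotes the concentration required for 50% inhibition of growth.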 Calls of active or inactive are those of the source. Cut-off read from the data, not from the text of the source: active = GI50 up to about 1.1 µM and inactive = higher.

What was measured:
Assay in all cases: NCI tumour cell line growth inhibition, 48 h
[1] = system: SNB-75
[2] = system: SN12C
[3] = system: SK-OV-3
[4] = system: HCT-116
[5] = system: RXF 631
[6] = system: SF-539
[7] = system: UACC-62
[8] = system: U-251
[9] = system: COLO 205
[10] = system: NCI-H460
[11] = system: K562
[12] = system: CCRF-CEM
[13] = system: SK-MEL-2
[14] = system: CAKI-1
[15] = system: KM-20L2
[16] = system: HCC 2998
[17] = system: SF-268
[18] = system: XF498
[19] = system: A549
[20] = system: SK-MEL-28
[21] = system: OVCAR-4
[22] = system: SW-620
[23] = system: LOX IMVI
[24] = system: Malme-3M
[25] = system: DLD-1
[26] = system: KM12
[27] = system: MOLT-4
[28] = system: M14
[29] = system: EKVX
[30] = system: SNB-78
[31] = system: LXFL 529
[32] = system: TK-10
[33] = system: OVCAR-5
[34] = system: HT-29
[35] = system: UACC-257
[36] = system: HL-60
[37] = system: M19-MEL
[38] = system: HCT-15
[39] = system: ACHN
[40] = system: SR
[41] = system: 786-0
[42] = system: NCI-H522
[43] = system: HOP-92
[44] = system: UO-31
[45] = system: OVCAR-8
[46] = system: SF-295
[47] = system: SNB-19
[48] = system: NCI-H23
[49] = system: NCI-H226
[50] = system: RXF 393
[51] = system: OVCAR-3
[52] = system: HOP-62
[53] = system: IGROV-1
[54] = system: DMS-114
[55] = system: HOP-18
[56] = system: RPMI-8226
[57] = system: DMS-273
[58] = system: SK-MEL-5

Measured: GI50

Cc1nc(Nc2ccc([N+](=O)[O-])cc2)sc1C(/C=C/c1ccc(N(C)C)cc1)=N/NC(=O)c1ccccc1
inactive: [1] > 100 µM | [2] 59.3 µM | [3] > 100 µM | [4] 63.7 µM | [5] 32.6 µM | [6] 42.9 µM | [7] 4.84 µM | [8] 56.6 µM | [9] > 100 µM | [10] 59.6 µM | [11] 18.5 µM | [12] 38.3 µM | [13] 92 µM | [14] > 100 µM | [15] 36.3 µM | [16] 41.3 µM | [17] 43 µM | [18] > 100 µM | [19] 46.5 µM | [20] > 100 µM | [21] 76 µM | [22] 45.6 µM | [23] 36.6 µM | [24] 70 µM | [25] 55 µM | [26] 36.4 µM | [27] 41.9 µM | [28] 48.8 µM | [29] 41.2 µM | [30] 41.6 µM | [31] 29.1 µM | [32] 52.8 µM | [33] > 100 µM | [34] 39.1 µM | [35] 82.2 µM | [36] 22.6 µM | [37] 61.1 µM | [39] 39.6 µM | [40] 41.7 µM | [41] 85.9 µM | [42] 31 µM | [43] 6.82 µM | [44] 89.3 µM | [45] > 100 µM | [46] 56 µM | [47] 62.2 µM | [48] 47.8 µM | [49] 63 µM | [50] 58.6 µM | [51] > 100 µM | [52] 40 µM | [53] 51.3 µM | [54] 29 µM | [55] 72.8 µM
29.6 µM: [38]

COc1cc(C=O)c(-c2cc3c(cc2C=O)OCO3)c(OC)c1OC
inactive: [2] 85.9 µM | [3] 98.6 µM | [4] 64.3 µM | [5] 115 µM | [6] 81.8 µM | [7] 90.6 µM | [8] 126 µM | [9] 92.5 µM | [10] 103 µM | [11] 87.1 µM | [12] 88.1 µM | [13] 65.6 µM | [14] 76.9 µM | [15] 69.5 µM | [16] 210 µM | [17] 101 µM | [19] 93.8 µM | [56] 96.6 µM | [20] 144 µM | [22] 94.6 µM | [23] 85.7 µM | [24] 96.6 µM | [25] 88.7 µM | [26] 59.3 µM | [27] 96.2 µM | [29] 178 µM | [31] 78 µM | [32] 210 µM | [33] > 290 µM | [34] 79.6 µM | [35] 123 µM | [36] 94.8 µM | [37] 89.1 µM | [57] 85.5 µM | [39] > 290 µM | [40] 93.1 µM | [58] 94.6 µM | [41] 84.9 µM | [42] 41.8 µM | [43] 29.6 µM | [45] 117 µM | [46] 70 µM | [47] 202 µM | [48] 63.1 µM | [49] 93.1 µM | [50] 63.5 µM | [51] 56.6 µM | [52] 108 µM | [53] 143 µM | [54] 84.5 µM | [55] > 290 µM
73.3 µM: [38]
